From PubChem BioAssay AID2060348 (Molecular Pharmacology Branch, DTP, NCI, 2025)

System: 885724-159-R-J1-PDC spheroids viability
Assay: Anticancer human tumor 885724-159-R-J1-PDC patient-derived pancreatic adenocarcinoma cell line growth inhibition [TAK]
Conditions: spheroids with HUVEC and MSC; for IC50: curve of first compound; for viability, T/C: stronger effect = lower value
From the text: Combinatorial screen of targeted agents with TAK-243 and ipatasertib in multi-cell type tumor spheroids
A high-throughput screen of multi-cell type tumor spheroids was designed to identify active combinations of targeted small molecules and TAK-243 or ipatasertib. Complex spheroids include a stromal component modeled by human endothelial cells (HUVEC) and fibroblasts modeled by human mesenchymal stem cells (MSCs). The concentration ranges selected for each drug and investigational agent were based upon clinically achievable concentrations if the clinical Cmax of the agent was known.
Compounds. The drugs and investigational agents: TAK-243 (785004), ipatasertib (767898), everolimus (733504), selumetinib (741078), bortezomib (756655), trametinib (758246), ixazomib (758254), vemurafenib (761431), dabrafenib (764134), sapanisertib (764658), alpelisib (765974), and copanlisib (816437), were obtained from the National Cancer Institute (NCI) Developmental Therapeutics Program Chemical Repository. The FDA-approved anticancer drug set is available from the NCI Developmental Therapeutics Program. […] The stock solutions were prepared in dimethyl sulfoxide (DMSO, Sigma-Aldrich, St. Louis, MO, cat. D2650) at 800-fold the tested concentration and stored at -70 degrees C prior to their use. All drugs and investigational agents were tested over a range starting from a high concentration at or near the clinical Cmax and decreasing in half-log increments. If the clinical Cmax for an agent had not been determined, the highest concentration tested was 10 microM.
NCI60 Cell Culture. NCI60 cell lines were obtained from the NCI Developmental Therapeutics Program Tumor Repository. For each lot of cells, the Repository performed Applied Biosystems AmpFLSTR Identifiler testing with PCR amplification to confirm consistency with the published Identifier STR profile for each cell line. Cells were kept in continuous culture for no more than 20 passages. The optimal seeding densities for each of the cell lines at each time point assessed were determined prior to performing the concentration response studies. Briefly, the NCI60 human tumor lines were grown as monolayers in RPMI 1640 medium supplemented with 10% FBS and 2 mmol/L L-glutamine.
An additional 2 lines were from the NCI60 cell line panel including melanomas, MALME-3M and SK-MEL-2. Pooled donor human umbilical vein endothelial cells (HUVEC, Lonza, cat. CC-2519) and human mesenchymal stem cells (hMSC, Lonza, cat. PT-2501) were purchased from Lonza (Walkersville, MD).
PDMR cell lines were grown in complete medium (DC medium): Dulbecco's modified Eagle's medium (DMEM)/F12 supplemented with 5% fetal bovine serum (FBS), 2 mM L-glutamine, 100 U/mL penicillin and 100 µg/ml streptomycin, 0.4 µg/ml hydrocortisone, 10 ng/ml epidermal growth factor (EGF) recombinant human protein, 24 µg/mL adenine, and 0.1 mg/mL primocin. During culture from frozen stock vials, PDMR cells were cultured in the same medium containing 10 µM Y-27632 (see Table 3). The PDCs were cultured in complete DMEM/F12 media without 10 microM Y-27632 dihydrochloride for at least two passages prior to the screen. The pooled donor HUVEC and hMSC were cultured in endothelial cell growth medium 2 (PromoCell, Heidelberg, Germany, cat. C-22011) and mesenchymal stem cell growth medium 2 (PromoCell, cat. C-28009), respectively. For all experiments, HUVEC and hMSC were used at passages </=5.
For the pre-screen, cell seeding densities were determined from a titration spanning the range from 5,000 to 313 cells per well. The mct-spheroids including 60% malignant cells, 25% HUVEC and 15% MSC dispensed as a mixture into U-bottom Ultra-Low Attachment 384-well plates (Corning, NY)
High-throughput Drug Combination Screening.
Prior to their inoculation into 384-well plates, malignant cells, HUVEC, and hMSC were removed from T flasks using TrypLE express (Thermo Fisher Scientific, cat. 12605036) and harvested by centrifugation for 5 min at 233 x g. […]
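Further: spheroids exposed to drugs for seven days.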
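Wherever viability, T/C is given: 100% = DMSO vehicle control viability.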

How did the IC50 (second compound 0.3 µM) turn out when `CC(=O)Nc1cccc(-n2c(=O)n(C3CC3)c(=O)c3c(Nc4ccc(I)cc4F)n(C)c(=O)c(C)c32)c1` + CC(C)NCC(C(=O)N1CCN(c2ncnc3c2C(C)CC3O)CC1)c1ccc(Cl)cc1 was run?
Its IC50 is 0.357 nM.

And the IC50 (second compound 0.949 µM)?
The IC50 was 0.148 nM.

What about the IC50 (second compound 3 µM) of the same molecule?
The IC50 was 0.118 nM.

And the IC50 (second compound 9.49 µM)?
The IC50 was < 0.0949 nM.

And the IC50 (second compound 30 µM)?
The IC50 was < 0.0949 nM.

And the viability, T/C (second compound 0.3 µM, first compound 94.9 pM)?
The viability, T/C was 62.1%.

And the viability, T/C (second compound 0.3 µM, first compound 0.0003 µM)?
The viability, T/C was 52.4%.

What about the viability, T/C (second compound 0.3 µM, first compound 0.000949 µM) of the same molecule?
Its viability, T/C is 39.4%.

What about the viability, T/C (second compound 0.3 µM, first compound 0.003 µM) of the same molecule?
The viability, T/C was 29.7%.

What about the viability, T/C (second compound 0.3 µM, first compound 0.00949 µM) of the same molecule?
The viability, T/C was 19.8%.

And the viability, T/C (second compound 0.3 µM, first compound 0.03 µM)?
Its viability, T/C is 12.7%.

And the viability, T/C (second compound 0.949 µM, first compound 94.9 pM)?
Its viability, T/C is 51.8%.

And the viability, T/C (second compound 0.949 µM, first compound 0.0003 µM)?
Its viability, T/C is 46.9%.

And the viability, T/C (second compound 0.949 µM, first compound 0.000949 µM)?
The viability, T/C was 39.5%.

And the viability, T/C (second compound 0.949 µM, first compound 0.003 µM)?
Its viability, T/C is 26.4%.

What about the viability, T/C (second compound 0.949 µM, first compound 0.00949 µM) of the same molecule?
The viability, T/C was 16.5%.

What about the viability, T/C (second compound 0.949 µM, first compound 0.03 µM) of the same molecule?
Its viability, T/C is 9.03%.

What about the viability, T/C (second compound 3 µM, first compound 94.9 pM) of the same molecule?
Its viability, T/C is 50.9%.

And the viability, T/C (second compound 3 µM, first compound 0.0003 µM)?
The viability, T/C was 47%.

What about the viability, T/C (second compound 3 µM, first compound 0.000949 µM) of the same molecule?
Its viability, T/C is 37.3%.

What about the viability, T/C (second compound 3 µM, first compound 0.003 µM) of the same molecule?
Its viability, T/C is 27.7%.

And the viability, T/C (second compound 3 µM, first compound 0.00949 µM)?
Its viability, T/C is 12.6%.

What about the viability, T/C (second compound 3 µM, first compound 0.03 µM) of the same molecule?
The viability, T/C was 7.15%.

And the viability, T/C (second compound 9.49 µM, first compound 94.9 pM)?
The viability, T/C was 42.9%.

What about the viability, T/C (second compound 9.49 µM, first compound 0.0003 µM) of the same molecule?
The viability, T/C was 39.1%.

What about the viability, T/C (second compound 9.49 µM, first compound 0.000949 µM) of the same molecule?
Its viability, T/C is 31.9%.

And the viability, T/C (second compound 9.49 µM, first compound 0.003 µM)?
Its viability, T/C is 20.5%.

And the viability, T/C (second compound 9.49 µM, first compound 0.00949 µM)?
Its viability, T/C is 9.73%.

And the viability, T/C (second compound 9.49 µM, first compound 0.03 µM)?
Its viability, T/C is 4.47%.

What about the viability, T/C (second compound 30 µM, first compound 94.9 pM) of the same molecule?
Its viability, T/C is 29.2%.

What about the viability, T/C (second compound 30 µM, first compound 0.0003 µM) of the same molecule?
Its viability, T/C is 23.4%.

What about the viability, T/C (second compound 30 µM, first compound 0.000949 µM) of the same molecule?
Its viability, T/C is 15.1%.

What about the viability, T/C (second compound 30 µM, first compound 0.003 µM) of the same molecule?
The viability, T/C was 6.5%.

And the viability, T/C (second compound 30 µM, first compound 0.00949 µM)?
Its viability, T/C is 4.94%.

What about the viability, T/C (second compound 30 µM, first compound 0.03 µM) of the same molecule?
Its viability, T/C is 2.14%.

`CC(C)CC(NC(=O)C(Cc1ccccc1)NC(=O)c1cnccn1)B(O)O` (stereo not given) + CC(C)NCC(C(=O)N1CCN(c2ncnc3c2C(C)CC3O)CC1)c1ccc(Cl)cc1 was tested. Which IC50 (second compound 0.3 µM) did it give?
The IC50 was 3.48 nM.

And the IC50 (second compound 0.949 µM)?
Its IC50 is 1.44 nM.

And the IC50 (second compound 3 µM)?
Its IC50 is 1.28 nM.

And the IC50 (second compound 9.49 µM)?
Its IC50 is 0.572 nM.

What about the IC50 (second compound 30 µM) of the same molecule?
Its IC50 is < 0.0316 nM.

What about the viability, T/C (second compound 0.3 µM, first compound 31.6 pM) of the same molecule?
Its viability, T/C is 77.5%.

What about the viability, T/C (second compound 0.3 µM, first compound 0.0001 µM) of the same molecule?
The viability, T/C was 68.6%.

And the viability, T/C (second compound 0.3 µM, first compound 0.000316 µM)?
The viability, T/C was 68.7%.

What about the viability, T/C (second compound 0.3 µM, first compound 0.001 µM) of the same molecule?
Its viability, T/C is 68.1%.

And the viability, T/C (second compound 0.3 µM, first compound 0.00316 µM)?
Its viability, T/C is 55%.

What about the viability, T/C (second compound 0.3 µM, first compound 0.01 µM) of the same molecule?
Its viability, T/C is 0.97%.

And the viability, T/C (second compound 0.949 µM, first compound 31.6 pM)?
Its viability, T/C is 60.3%.

And the viability, T/C (second compound 0.949 µM, first compound 0.0001 µM)?
Its viability, T/C is 64.1%.

And the viability, T/C (second compound 0.949 µM, first compound 0.000316 µM)?
The viability, T/C was 59%.

And the viability, T/C (second compound 0.949 µM, first compound 0.001 µM)?
Its viability, T/C is 65.8%.

What about the viability, T/C (second compound 0.949 µM, first compound 0.00316 µM) of the same molecule?
Its viability, T/C is 23.7%.

What about the viability, T/C (second compound 0.949 µM, first compound 0.01 µM) of the same molecule?
The viability, T/C was 1.29%.

And the viability, T/C (second compound 3 µM, first compound 31.6 pM)?
The viability, T/C was 58.1%.

And the viability, T/C (second compound 3 µM, first compound 0.0001 µM)?
Its viability, T/C is 58.9%.

And the viability, T/C (second compound 3 µM, first compound 0.000316 µM)?
Its viability, T/C is 58.7%.

What about the viability, T/C (second compound 3 µM, first compound 0.001 µM) of the same molecule?
Its viability, T/C is 57.9%.

And the viability, T/C (second compound 3 µM, first compound 0.00316 µM)?
Its viability, T/C is 20.6%.

And the viability, T/C (second compound 3 µM, first compound 0.01 µM)?
Its viability, T/C is 0.95%.

And the viability, T/C (second compound 9.49 µM, first compound 31.6 pM)?
The viability, T/C was 48.1%.

And the viability, T/C (second compound 9.49 µM, first compound 0.0001 µM)?
Its viability, T/C is 54.8%.

What about the viability, T/C (second compound 9.49 µM, first compound 0.000316 µM) of the same molecule?
Its viability, T/C is 50.5%.

And the viability, T/C (second compound 9.49 µM, first compound 0.001 µM)?
The viability, T/C was 49%.

And the viability, T/C (second compound 9.49 µM, first compound 0.00316 µM)?
Its viability, T/C is 21.1%.

And the viability, T/C (second compound 9.49 µM, first compound 0.01 µM)?
The viability, T/C was 0.94%.

What about the viability, T/C (second compound 30 µM, first compound 31.6 pM) of the same molecule?
The viability, T/C was 31%.

What about the viability, T/C (second compound 30 µM, first compound 0.0001 µM) of the same molecule?
Its viability, T/C is 38.5%.

What about the viability, T/C (second compound 30 µM, first compound 0.000316 µM) of the same molecule?
Its viability, T/C is 33.7%.

What about the viability, T/C (second compound 30 µM, first compound 0.001 µM) of the same molecule?
Its viability, T/C is 34.5%.

What about the viability, T/C (second compound 30 µM, first compound 0.00316 µM) of the same molecule?
The viability, T/C was 14.8%.

And the viability, T/C (second compound 30 µM, first compound 0.01 µM)?
Its viability, T/C is 0.56%.
